Assay results published in US6482799B1, “Self-preserving multipurpose ophthalmic solutions incorporating a polypeptide antimicrobial” (The Regents of the University of California, priority 1999, dated 2002).

Tests used:
Type in all cases: cell-based
[1] = tested on: Pseudomonas aeruginosa (ATCC 9027); experiment: MIC / log kill assay, FDA 510(k) stand-alone procedure
Procedure: (§1) The supernatant was discarded and the wash repeated.
(§2) The tube was inverted to dissolve the polypeptide. […] Solutions were used immediately or stored at −20° C.
(§3) The purpose of this experiment was to determine whether additives such as surfactants (pluronic) and chelating agents (EDTA) would effect L-IND activity. The concentrations selected for each organism tested ( S. aureus and P. aeruginosa) were based on the L-IND MIC for that organism. A lower concentration was also selected to determine whether the additives enhanced the antimicrobial activity of L-IND. Concentrations of L-IND ranged from 3.12 to 50 μg/ml. The concentration of sodium phosphate (SP) buffer was also examined and ranged from 1 to 10 mM.
(§4) A full factorial experimental design was used with 5 factors at 2 levels: 1) Exposure time (1 hr, 4hr); 2) SP buffer concentration, pH 7.4 (1 mM, 10 mM); 3) Surfactant concentration (0.25 wt %, 0.5 wt %); 4) EDTA concentration (0.1 wt %, 0.2 wt %); and 5) L-IND concentration (MIC and lower).
(§5) As described in the MIC procedure (Example 10), cultures were exposed to solutions containing various combinations of the above components for 1 or 4 hr at room temperature. Appropriate controls were conducted to evaluate the effects of individual components. Each replicate (assay done in triplicate) was then diluted 10-fold in NaCl and plated onto Mueller-Hinton agar. Colonies were then counted and log kill, effects of each additive, SP buffer concentration, and length of exposure on L-IND activity were examined. […]

[2] = tested on: Staphylococcus aureus (ATCC 6538); experiment: as above; conditions: for log kill: 12.5 μg/ml
Procedure: as §1, §2, §3, §4, §5

[3] = tested on: Staphylococcus aureus (ATCC 6538); experiment: Short-term (14 day) stability in commercial plastic container (RENU) by S. aureus bioassay; conditions: for stability of antimicrobial activity: room temperature, plastic container
Source text: The objective of this study was to determine if there is significant and rapid binding of L-IND to a typical plastic bottle such as the type to be used to store, ship and use the lens-care solution. The 2-week study reported here was a range-finding task to determine if there was substantial binding and incompatibility, and its results helped plan a more extensive stability study over a period of 8 months.
The two commercial containers were used that previously contained the commercial product RENU®, a multi-purpose solution for all soft contact lenses not requiring enzymatic cleaning, and manufactured by Bausch & Lomb. These containers hold a volume of 89 ml and came with a dispenser that precludes the removal of the cap, which aids in keeping the solution sterile. The lot number of the RENU® lens-care solutions used was GE7089, having an expiration date of May 1999.
The containers were prepared for the L-IND stability study by discarding the RENU® lens care solution, and by rinsing, 3 times with either sterile 10 mM sodium phosphate buffer (SP), pH 7.4 or 10 mM SP supplemented with 0.85 % (w/v) sodium chloride (SP+NaCl).
The test article, L-IND peptide solution, was prepared fresh from dry L-IND powder (Lot #036752). Two solutions were prepared for evaluation, to a final concentration of 50 μg/ml in 50 ml of 10 mM SP and 10 mM SP+NaCl. For this purpose a stock solution was prepared by weighing out 5 mg of L-IND and dissolving it in 10 ml of 0.01% acetic acid in a pyrogen free sterile Teflon container. A 10-fold dilution of this stock was then made by transferring 5 ml of the stock solution to each of the containers to which was then added 45 ml of either 10 mM SP or 10 mM SP+NaCl. After mixing by slowly shaking, the solutions were maintained at room temperature for the duration of the study.
It should be noted that the 5 ml of the L-IND stock solution was added to the empty containers. This was followed by addition of 45 ml of the respective buffer systems. The addition of peptide concentrate to the empty containers would enhance binding of the peptide to the plastic. Had excessive binding resulted, a less stringent procedure of adding the peptide concentrate to bottles prefilled with buffer would have been adopted in subsequent experiments.
The stability of L-IND in each container was determined at times 0 h, 24 h, 48 h, 72 h, 7 d, 10 d and 14 d. At each sampling point, the contents of each of the two containers was shaken gently 3 times in a back and forth rocking motion. Three aliquots of about 1.5 ml of the solutions containing L-IND were removed. One aliquot was used immediately for determining the stability of L-IND by exposure to Staphylococcus aureus (see below). The other aliquots were stored in the freezer (−20° C.). One of these aliquots was kept until the end of the monitoring period, which was 14 days. At that time all the frozen samples were thawed and tested for stability of L-IND by bioassay.
Staphylococcus aureus (ATCC 6538) obtained directly from the American Type Culture Collection was the test organism. The bacterium was grown overnight at 37° C. in 5 ml of Mueller-Hinton (MH) broth on a shaking platform (180 rpm). The overnight culture was washed 2 times in sterile saline by centrifugation at 7,000 RPM. One half of the cells were then resuspended in 2.5 ml of sterile 10 mM SP, while the other half was resuspended in 2.5 ml of 10 mM SP+NaCl. Each washed culture was then diluted to give an estimated 10^7 colony-forming-units (CFU) per […].
S. aureus was exposed at room temperature to each of the samples, removed at the different time points, for 0, 15 and 60 minutes, and for 4 hours. For this purpose 0.25 ml of each L-IND solution was dispensed into wells of a 96-well polypropylene titer plate. A volume of 20 μl of the 10× washed bacterial suspension was then added to each well. The estimated cell density thus obtained per well was about 10^6 CFU/ml. […]

CC[C@H](C)[C@H](N)C(=O)N[C@@H](CC(C)C)C(=O)N1CCC[C@H]1C(=O)N[C@@H](Cc1c[nH]c2ccccc12)C(=O)N[C@@H](CCCCN)C(=O)N[C@@H](Cc1c[nH]c2ccccc12)C(=O)N1CCC[C@H]1C(=O)N[C@@H](Cc1c[nH]c2ccccc12)C(=O)N[C@@H](Cc1c[nH]c2ccccc12)C(=O)N1CCC[C@H]1C(=O)N[C@@H](Cc1c[nH]c2ccccc12)C(=O)N[C@@H](CCCNC(=N)N)C(=O)N[C@@H](CCCNC(=N)N)C(N)=O [L-indolicidin, H2N-ILPWKWPWWPWRR-CONH2]
effect of pluronic on activity ([1]; 32 μ/ml, 0.25 wt % pluronic, either SP buffer concentration): No effect
inhibition in kill ([1]; pluronic in 1 mM SP buffer, 32 and 16 μg/ml, 4 hr): ~3 log
log kill ([2]; 1 mM SP buffer, pluronic and EDTA at either concentration): 6 log
log kill ([2]; 10 mM SP, without pluronic): 6 log
effect of EDTA on activity ([2]; 10 mM SP, EDTA 0.1 or 0.2 wt %): no effect
inhibition in kill ([2]; 0.5 wt % pluronic, SP at 5 mM): approximately 4 log
inhibition in kill ([2]; 32 μ/ml, pluronic and 10 mM SP buffer): > 3 log
effect of pluronic on activity ([2]; lower SP concentrations (1, 2.5 mM)): no effect in activity
stability of antimicrobial activity ([3]; 50 μg/ml in 10 mM SP+NaCl (0.85%), 14 days): stable
stability of antimicrobial activity ([3]; 50 μg/ml in 10 mM SP, 14 days): stable
adsorption to the plastic container ([3]; 50 μg/ml, 14 days): no obvious or dramatic adsorption
log kill ([3]; 50 μg/ml, frozen samples, 10 mM SP+NaCl, 4 hours exposure): about 1.5 log
log kill ([3]; 50 μg/ml, frozen, 10 mM SP, 60 minute exposure): 6 log
log kill ([3]; 50 μg/ml, unfrozen, 10 mM SP+NaCl (0.85%), 4 hours exposure): ~1 log
log kill ([3]; 50 μg/ml, unfrozen, 10 mM SP, 4 hours exposure): 4 log
